Reference: PubChem BioAssay AID1357 (Sanford-Burnham Center for Chemical Genomics, 2008)
The source made the active and inactive calls.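 Rule for the calls: active = no band for the stress protein CHOP on the immunoblot after the stress trigger, its induction blocked; inactive = CHOP band still seen after the stress trigger.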

System: CSM14.1 cells, thapsigargin-induced CHOP Western blot
Assay: inhibitors of CHOP induction, mechanism study for ER stress cell death inhibitors, thapsigargin stimulus, CSM14.1 cells, Western blot (AID 1357)

Row | Compound | outcome
1 | COc1ccc(C2CC(=O)C3=C(C2)Nc2ccccc2NC3c2cccc(Br)c2)cc1OC (stereo unspecified) | inactive
2 | CCOc1cc(C2Nc3ccccc3NC3=C2C(=O)CC(c2ccc(OC)cc2)C3)cc(Cl)c1O (stereo unspecified) | inactive
3 | CCOc1cccc(C2Nc3ccccc3NC3=C2C(=O)CC(c2ccc(OC)cc2)C3)c1 (stereo unspecified) | inactive
4 | O=C1CC(c2ccccc2)CC2=C1C(c1c(F)cccc1Cl)Nc1ccccc1N2 (stereo unspecified) | inactive
5 | COc1ccc(C2CC(=O)C3=C(C2)Nc2ccccc2NC3c2ccccc2C(F)(F)F)cc1OC (stereo unspecified) | inactive
6 | CCCOc1ccc(C2Nc3ccccc3NC3=C2C(=O)CC(c2ccc(OC)c(OC)c2)C3)cc1 (stereo unspecified) | inactive
7 | CC1(C)CC(=O)C2=C(C1)Nc1ccccc1NC2c1ccc(-c2ccccc2)cc1 (stereo unspecified) | inactive
8 | COc1ccc(C2CC(=O)C3=C(C2)Nc2ccccc2NC3c2cc(C)ccc2C)cc1 (stereo unspecified) | inactive
9 | CSc1ccc(C2Nc3ccccc3NC3=C2C(=O)CC(c2ccccc2)C3)cc1 (stereo unspecified) | inactive
10 | COc1ccc(C2CC(=O)C3=C(C2)Nc2ccccc2NC3c2cccc(C(F)(F)F)c2)cc1OC (stereo unspecified) | inactive
11 | COc1ccc(C2CC(=O)C3=C(C2)Nc2ccccc2NC3c2cccc(Oc3ccccc3)c2)cc1OC (stereo unspecified) | inactive
